Laboratory results published in US20080119513A1, “Sulfonamide Derivative Selectively Inhibiting Mmp-13” (priority 2004, published 2008).

Key:
Format in all cases: biochemical
MMP-8 = biological target: T1, MMP-8 (Homo sapiens, UniProt P22894); assay: Assay for inhibitory activities on MMPs (fluorogenic peptide substrate), MMP-8
T1 construct: In regard to MMP-8, catalytic domain (^99Phe˜^262Gly) was amplified with PCR; His-tag; enterokinase digestion-site
Excerpt: In regard to MMP-8, catalytic domain (^99Phe˜^262Gly) was amplified with PCR using commercial available Human Bone Marrow cDNA. This was cloned in Escherichia coli expression vector pTrc99AHE inserted with His-tag sequence and enterokinase digestion-site, induced and expressed by IPTG (Isopropyl-β-D-thiogalactopyranoside) and expressed in a insoluble fraction (Than F. Ho, M. Walid Qoronfleh, Robert C. Wahl, Trica A. Pulvino, Karen J. Vavra, Joe Falvo, Tracey M. Banks, Patricia G. Brake and Richard B. Ciccarelli: Gene expression, purification and characterization of recombinant human neutrophil collagenase. Gene 146, (1994) 297-301. It was prepared by the method in a slight modification). Isolation of MMP-8 from an insoluble fraction was carried out by dissolving in modifier (6 M urea) by a usual method and purification with metal chelate chromatography. And then removing modifier (6 M urea) with dialysis and refolding of the enzyme spontaneously gave activated MMP-8.
(§1) The enzymatic activity on MMPs was analyzed by the method described in “C. Graham Knight, Frances Willenbrock and Gillian Murphy: A novel coumarin-labelled peptide for sensitive continuous assays of the matrix metalloproteinases: FEBS LETT., 296, (1992), 263-266”. The substrate: MOCAc-Pro-Leu-Gly-Leu-A2Pr(DNP)-Ala-Arg-NH2 was purchased from Peptide Institute, Inc., Osaka, Japan. The measurement of the inhibitory activities (IC50) was carried out by the following four methods;
(§2) (A) Reaction with substrate, enzyme (MMPs) and inhibitor
(§3) (B) Reaction with substrate and inhibitor, without enzyme
(§4) (C) Reaction with substrate and enzyme (MMPs), without inhibitor
(§5) (D) Reaction with substrate only
(§6) IC50 values were calculated by using the following formula and each fluorescence values of above four methods (A to D).
(§7) % inhibition={1-(A−B)/(C−D)}×100
(§8) IC50 means the concentration required to inhibit 50% of the enzyme activity.
(§9) The value of inhibitory activity against MMP-2, MMP-8, MMP-9, MMP-12, and MMP-13 measured by above mentioned methods are shown in Table 25 and 26.

MMP-9 = MMP-9 (Homo sapiens, UniProt P14780); assay: Assay for inhibitory activities on MMPs (fluorogenic peptide substrate), MMP-9
Excerpt: MMP-9 was isolated and purified by the procedure of Y. Okada et al. (Yasunori Okada, Yukio Gonoji, Katsumi Naka, Katsuro Tomita, Isao Nakanishi, Kazushi Iwata, Kyoko Yamashita, and Taro Hayakawa: Matrix metalloproteinase 9 (92-kDa gelatinase/type IV collagenase) from HT1080 human fibrosarcoma cells. Purification and activation of the precursor and enzymic properties, J. Biol. Chem., 1992, 267, 21712-21719) in combination with other following methods: 1) Yasunori Okada, Tatsuhisa Morodomi, Jan J, Enghild, Ko Suzuki, Atsushi Yasui, Isao Nakanishi, Guy Salvesen and Hideaki Nagase: Matrix metalloproteinase 2 from human rheumatoid synovial fibroblasts. Purification and activation of the precursor and enzymic properties, Eur. J. Biochem., 1990, 194, 721-730; 2) Robin V Ward, Rosalind M Hembry, John J Reynolds and Gillian Murphy: The purification of tissue inhibitor of metalloproteinase-2 from its 72 kDa progelatinase complex. Biochem. J., 1991, 278, 179-187. In detail, human fibrosarcoma ATCC HT1080 cell line was cultured to confluent in Dulbecco's Modified Medium (DMEM) containing 10% fetal-calf serum at 37° C. for 48 hours. Subsequently, the medium of confluent culture was changed to serum-free DMEM medium. To obtain MMP-9, phorbol-12-myristate-13-acetate (TPA) must be added to this serum-free DMEM medium at a concentration of 50 ng/ml. The TPA-treated medium was centrifuged at 3000 rpm for 15 min, and the supernatant was concentrated to 450 ml by a Toyo-Roshi UP-20 apparatus with an ultrafiltration membrane. Then, proMMP-9 in this concentrated solution was purified by using columns of Gelatin-Sepharose and Concanavalin A-Sepharose. The pool containing proMMP-9 was dialyzed, concentrated (Toyo-Roshi UP-20) and applied to columns of Sephacryl S-200 and Green A matrix for the separation from TIMPs. The obtained proMMP-9 fraction was activated by TPCK-Trypsin (Final conc.: 3 μg/501 React Mix.).
as §1, §2, §3, §4, §5, §6, §7, §8, §9

MMP-13 = biological target: T2, MMP-13 (Homo sapiens, UniProt P45452); assay: Assay for inhibitory activities on MMPs (fluorogenic peptide substrate), MMP-13
T2 construct: catalytic domain (^104Tyr˜^267Gly) was amplified with RT-PCR; His-tag; enterokinase digestion-site
Description: In regard to MMP-13, mRNA was prepared from carcinoma cell SW1353 derived from human cartilage stimulate by IL-1 and TNF, and catalytic domain (^[…]) was amplified with RT-PCR. This was cloned in Escherichia coli expression vector […] inserted with His-tag sequence and enterokinase digestion-site, induced and expressed by IPTG (Isopropyl-β-D-thiogalactopyranoside) and expressed in an insoluble fraction. Isolation of MMP-13 from an insoluble fraction was carried out by dissolving in modifier (6 M urea) by a usual method and purification with metal chelate chromatography (Ni […] Sepharose). And then removing modifier (6 M urea) with dialyze and refolding of the enzyme spontaneously gave activated MMP-13. The enzymatic activity on MMPs was analyzed by the method described in “C. Graham Knight, Frances Willenbrock and Gillian Murphy: A novel coumarin-labelled peptide for sensitive continuous assays of the matrix metalloproteinases: FEBS LETT., 296, (1992), 263-266”. The substrate: MOCAc-[…] was purchased from Peptide Institute, Inc., Osaka, Japan. The measurement of the inhibitory activities (IC50) was carried out by the following four methods; (A) Reaction with substrate, enzyme (MMPs) and inhibitor (B) Reaction with substrate and inhibitor, without enzyme (C) Reaction with substrate and enzyme (MMPs), without inhibitor (D) Reaction with substrate only IC50 values were calculated by using the following formula and each fluorescence values of above four methods (A to D). % inhibition={1-(A-B)/(C-D)}×100 IC50 means the concentration required to inhibit 50% of the enzyme activity. The value of inhibitory activity against MMP-2, MMP-8, MMP-9, MMP-12, and MMP-13 measured by above mentioned methods are shown in Table 25 and 26.

MMP-12 = biological target: T3, MMP-12 (Homo sapiens, UniProt P39900); assay: Assay for inhibitory activities on MMPs (fluorogenic peptide substrate), MMP-12
T3 construct: In regard to MMP-12, catalytic domain (^100Phe˜^263Gly) was amplified with RT-PCR; His-tag; enterokinase digestion-site
Description: In regard to MMP-12, catalytic domain (^100Phe˜^263Gly) was amplified with RT-PCR from Human Placenta Total RNA. This was cloned in Escherichia coli expression vector pTrc99AHE inserted with His-tag sequence and enterokinase digestion-site, induced and expressed by IPTG (Isopropyl-β-D-thiogalactopyranoside) and expressed in an insoluble fraction. Isolation of MMP-12 from an insoluble fraction was carried out by dissolving in modifier (6 M urea) by a usual method and purification with metal chelate chromatography (Ni Chelateing Sepharose). And then removing modifier (6 M urea) with dialysis and refolding of the enzyme spontaneously gave activated MMP-12.
as §1, §2, §3, §4, §5, §6, §7, §8, §9

MMP-2 = biological target: T4, MMP-2 (Homo sapiens, UniProt P08253); assay: Assay for inhibitory activities on MMPs (fluorogenic peptide substrate), MMP-2
T4 sequence (P08253 110-660): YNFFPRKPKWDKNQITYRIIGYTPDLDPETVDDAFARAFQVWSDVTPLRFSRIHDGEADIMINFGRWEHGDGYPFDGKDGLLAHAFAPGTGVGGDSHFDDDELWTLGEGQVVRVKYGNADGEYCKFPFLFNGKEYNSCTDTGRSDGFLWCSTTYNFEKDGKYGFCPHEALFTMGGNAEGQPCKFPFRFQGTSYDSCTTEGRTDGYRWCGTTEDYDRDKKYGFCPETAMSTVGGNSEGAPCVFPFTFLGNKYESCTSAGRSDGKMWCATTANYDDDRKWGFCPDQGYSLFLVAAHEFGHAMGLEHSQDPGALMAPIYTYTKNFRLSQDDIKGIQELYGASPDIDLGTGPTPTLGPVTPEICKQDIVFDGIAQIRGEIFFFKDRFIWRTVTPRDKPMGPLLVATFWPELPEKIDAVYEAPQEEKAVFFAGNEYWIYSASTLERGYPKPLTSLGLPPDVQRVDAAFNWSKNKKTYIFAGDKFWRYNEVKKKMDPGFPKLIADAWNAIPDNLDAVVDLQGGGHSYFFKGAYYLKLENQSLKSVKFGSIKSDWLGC
Description: MMP-2 was purchased from Calbiochem-Novabiochem International, Inc.
as §1, §2, §3, §4, §5, §6, §7, §8, §9

T1 sequence (P22894 99-262): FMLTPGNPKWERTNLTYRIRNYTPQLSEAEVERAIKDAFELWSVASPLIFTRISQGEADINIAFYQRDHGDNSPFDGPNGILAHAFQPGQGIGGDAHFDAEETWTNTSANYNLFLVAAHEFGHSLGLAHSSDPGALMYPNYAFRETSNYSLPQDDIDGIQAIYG
Sequence of MMP-9 (P14780 107-707): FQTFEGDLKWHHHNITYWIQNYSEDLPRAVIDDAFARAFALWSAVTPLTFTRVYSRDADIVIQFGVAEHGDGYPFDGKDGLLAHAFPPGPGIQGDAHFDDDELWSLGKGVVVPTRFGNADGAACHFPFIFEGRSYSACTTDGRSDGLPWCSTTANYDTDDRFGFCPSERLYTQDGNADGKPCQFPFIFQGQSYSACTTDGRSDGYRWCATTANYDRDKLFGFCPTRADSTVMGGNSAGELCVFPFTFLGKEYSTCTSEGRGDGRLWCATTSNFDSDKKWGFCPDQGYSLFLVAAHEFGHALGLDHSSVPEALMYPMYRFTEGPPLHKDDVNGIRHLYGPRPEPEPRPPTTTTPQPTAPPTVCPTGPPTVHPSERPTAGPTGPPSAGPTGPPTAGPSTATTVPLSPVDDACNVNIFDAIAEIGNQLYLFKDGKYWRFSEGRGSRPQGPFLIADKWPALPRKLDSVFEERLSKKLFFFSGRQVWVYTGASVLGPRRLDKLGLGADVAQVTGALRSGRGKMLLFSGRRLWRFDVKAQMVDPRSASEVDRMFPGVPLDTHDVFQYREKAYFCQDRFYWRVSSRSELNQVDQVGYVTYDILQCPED
T3 sequence (P39900 100-263): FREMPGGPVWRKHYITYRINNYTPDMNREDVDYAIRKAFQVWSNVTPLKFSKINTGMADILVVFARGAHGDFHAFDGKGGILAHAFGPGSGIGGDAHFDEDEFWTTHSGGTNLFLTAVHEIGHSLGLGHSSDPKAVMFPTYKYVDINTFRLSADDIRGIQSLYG

Row | Structure (SMILES) | IC50 (MMP-8) [nM] | IC50 (MMP-9) [nM] | IC50 (MMP-13) [nM] | IC50 (MMP-12) [nM] | IC50 (MMP-2) [nM]
1 | O=C(Nc1ccc(-c2ccc(S(=O)(=O)N[C@H](Cc3ccccc3)C(=O)O)cc2)cc1)c1ccccc1 [VI-2] | > 10000 | > 10000 | 73.6 | > 10000 | 371
2 | O=C(Nc1ccc(-c2ccc(S(=O)(=O)N[C@H](Cc3ccccc3)C(=O)O)cc2)cc1)c1ccc2ccccc2c1 [VI-10] | > 10000 | > 10000 | 21.4 | > 10000 | > 10000
3 | O=C(/C=C/c1ccccc1)Nc1ccc(-c2ccc(S(=O)(=O)N[C@H](Cc3ccccc3)C(=O)O)cc2)cc1 [VI-9] | > 10000 | > 10000 | 44.6 | > 10000 | 178
4 | O=C(Nc1ccc(-c2ccc(S(=O)(=O)N[C@H](Cc3ccccc3)C(=O)O)cc2)cc1)c1ccc2c(c1)OCO2 [VI-12] | 1740 | > 10000 | 31.1 | 334 | 197
5 | COc1ccc(C(=O)Nc2ccc(-c3ccc(S(=O)(=O)N[C@H](Cc4ccccc4)C(=O)O)cc3)cc2)cc1OC [VI-8] | 723 | > 10000 | 27.2 | 839 | 1050
6 | C[C@@H](NS(=O)(=O)c1ccc(-c2ccc(NC(=O)c3ccc(OC(F)(F)F)cc3)cc2)cc1)C(=O)O [VI-21] | > 10000 | > 10000 | 36.8 | 522 | 105
7 | COc1ccc(C(=O)Nc2ccc(-c3ccc(S(=O)(=O)N[C@H](Cc4ccccc4)C(=O)O)cc3)cc2)cc1 [VI-3] | > 10000 | > 10000 | 32.6 | 1100 | 239
8 | O=C(Nc1ccc(-c2ccc(S(=O)(=O)N[C@H](Cc3ccccc3)C(=O)O)cc2)cc1)c1ccc(F)c(F)c1 [VI-11] | > 10000 | > 10000 | 38.8 | 9010 | 139

Second part, the molecule after the results:

Row | IC50 (MMP-8) [nM] | IC50 (MMP-9) [nM] | IC50 (MMP-13) [nM] | IC50 (MMP-12) [nM] | IC50 (MMP-2) [nM] | Structure (SMILES)
9 | 5300 | > 10000 | 78.8 | > 10000 | > 10000 | COc1ccc2cc(C#Cc3ccc(-c4ccc(S(=O)(=O)N[C@@H](Cc5ccccc5)C(=O)O)cc4)cc3)ccc2c1 [III-29]
10 | 243 | > 10000 | 13.8 | 125 | 50.6 | COCC(NS(=O)(=O)c1ccc(-c2ccc(C#Cc3ccc4cc(OC)ccc4c3)cc2)cc1)C(=O)O (stereo not drawn) [III-50]
11 | 40.1 | > 10000 | 4.54 | 47.4 | 72.6 | CC(C)[C@@H](NS(=O)(=O)c1ccc(-c2ccc(C#Cc3ccc4ccccc4c3)cc2)cc1)C(=O)O [III-4]
12 | 41.6 | > 10000 | 16.3 | 50.7 | 602 | CCC(C)[C@H](NS(=O)(=O)c1ccc(-c2ccc(C#Cc3ccc4cc(OC)ccc4c3)cc2)cc1)C(=O)O (stereo partly drawn) [III-23]
13 | 7680 | > 10000 | 225 | > 10000 | > 10000 | O=C(O)[C@@H](CC1CCCCC1)NS(=O)(=O)c1ccc(-c2ccc(C#Cc3ccc4ccccc4c3)cc2)cc1 [III-15]
14 | > 10000 | > 10000 | 19.3 | > 10000 | > 10000 | COc1ccc2cc(C#Cc3ccc(-c4ccc(S(=O)(=O)N[C@@H](CO)C(=O)O)cc4)cc3)ccc2c1 [III-45]
15 | 36.9 | > 10000 | 5.73 | 58.3 | > 4000 | COc1ccc2cc(C#Cc3ccc(-c4ccc(S(=O)(=O)N[C@H](C(=O)O)C(C)C)cc4)cc3)ccc2c1 [III-21]
16 | > 10000 | > 10000 | 100 | > 10000 | > 10000 | COc1ccc(C[C@H](NS(=O)(=O)c2ccc(-c3ccc(C#Cc4ccc5cc(OC)ccc5c4)cc3)cc2)C(=O)O)cc1 [III-48]
17 | > 5000 | > 5000 | 15.7 | 2200 | > 5000 | COc1ccc2cc(C#Cc3ccc(-c4ccc(S(=O)(=O)N[C@H](Cc5ccccc5)C(=O)O)cc4)cc3)ccc2c1 [III-28]
18 | 13.1 | > 10000 | 4.32 | 20.2 | 327 | CC(C)C[C@H](NS(=O)(=O)c1ccc(-c2ccc(C#Cc3ccc4ccccc4c3)cc2)cc1)C(=O)O [III-7]
